Results reported in patent US9758492B2, “IDO inhibitors” (Bristol-Myers Squibb Company, priority 2013, dated 2017).

Key:
IDO [1] = target: T1, IDO (Homo sapiens, UniProt P14902); assay: Kynurenine assay in Hela cells stimulated with IFN-γ to express IDO; format: cell-based; set-up: endogenous in cells; host or cells: HeLa (ATCC CCL-2), stimulated with human recombinant IFN-gamma; conditions: 20 h, read-out: Hela Kyurenine (IC50)
Description: IFNg (R&D, 28-IF-100)—resuspend at 10 ug/mL in PBS with 0.1% BSA 30% TCA
Ehrlich reagent (2% w/v p-dimethylaminobenzaldehyde in glacial acetic acid)
Cell Titer 96 Aqueous Non-Radioactive Cell Proliferation Assay, MTS (Promega, Cat # G5430)
Cell Lines and Culture Conditions
Hela cancer cell lines were acquired from the American Type Culture Collection. Cells were maintained in phenol red free-RPMI1640 medium containing high glucose and L-glutamine (Invitrogen) supplemented with 10% fetal bovine serum (FBS; Invitrogen). Cell cultures were incubated at 37° C., 5% CO2, and 100% humidity.
Cell Treatment and Kynurenine Assay
Hela cells were seeded on 96-well plates (40,000 cells per well) and allowed to adhere for 5-6 hours. Cells were then treated with vehicle (DMSO) or with IDO inhibitor at a top dose of 30 μM (3-fold dilution all the way down to 1.5 nM). A final concentration of 100 ng/mL of human recombinant IFN-γ (R&D, 28-IF-100) was immediately added to the cells to stimulate IDO expression. Treated cells were then incubated for 20 hours at 37° C. At the end of the 20 h incubation, reactions were terminated by the addition of 30% TCA to each well. Plates were incubated for 30 minutes at 50° C. to hydrolyze N-formylkynurenine to kynurenine. Cells were centrifuged 10 minutes at 2400 rpm. 100 ul of supernatants were transferred to new 96 flat well plates and mixed with 100 ul Ehrlich reagent. The resulting solution was incubated 10 minutes at RT. Absorbance at 490 nm was read using Spectra Max 384 (Molecular Devices).

Human IDO1 = target: T2, Human IDO1 (Homo sapiens, UniProt P14902); assay: IDO Kynurenine Assay with Human IDO1/HEK293 Cells; format: cell-based; conditions: read-out: HEK human IDO-1 (IC50)
T2 construct: expressed in transfected cells; host or cells: HEK293
T2 sequence (P14902 whole entry): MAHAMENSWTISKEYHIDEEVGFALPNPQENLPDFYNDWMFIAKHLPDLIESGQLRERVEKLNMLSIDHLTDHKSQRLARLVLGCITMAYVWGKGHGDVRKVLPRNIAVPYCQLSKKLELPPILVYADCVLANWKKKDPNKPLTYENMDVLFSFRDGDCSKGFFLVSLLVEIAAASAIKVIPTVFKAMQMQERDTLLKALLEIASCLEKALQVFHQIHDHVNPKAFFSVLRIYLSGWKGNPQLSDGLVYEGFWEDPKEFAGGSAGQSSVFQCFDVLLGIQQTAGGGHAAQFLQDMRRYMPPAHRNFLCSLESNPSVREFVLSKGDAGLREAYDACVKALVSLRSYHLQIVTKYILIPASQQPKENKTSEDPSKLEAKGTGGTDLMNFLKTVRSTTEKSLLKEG
In short: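 HEK293 cells stably expressing human IDO1, in phenol red-free RPMI/10% FBS, exposed to compound for 20 h at 37 °C. Stopped with 0.2% TCA (50 °C, 30 min); kynurenine in supernatant detected with Ehrlich reagent, absorbance 490 nm.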

IDO [2] = target: T1, IDO; assay: LLE_IDO_ABS_DR (IDO assay)

T1 sequence (P14902 whole entry): as above

Row | SMILES | IC50 (IDO [1]) | IC50 (Human IDO1) | IC50 (IDO [2])
1 | Cc1ccc(NC(=O)Nc2cc(-c3ccccc3-c3nnn[nH]3)ccc2N(CC(C)C)CC(C)C)cc1 [Example 1, 1-(4-(Diisobutylamino)-2′-(1H-tetrazol-5-yl)biphenyl-3-yl)-3-p-tolylurea] | 1.37 nM | 3.31 nM | 3.45 nM
2 | COC(CN(C)c1ccc(-c2ccccc2-c2nnn[nH]2)cc1NC(=O)Nc1ccc(C)cc1)OC [Example 55, 1-(4-((2,2-dimethoxyethyl) (methyl)amino)-2′-(1H-tetrazol-5-yl)biphenyl-3-yl)-3-p-tolylurea] | 110 nM |  | 230 nM
3 | COCCN(CCOC)c1ccc(-c2ccccc2C(=O)O)cc1NC(=O)Nc1ccc(C)cc1 [Example 56, 4′-(bis(2-methoxyethyl)amino)-3′-(3-p-tolylureido)biphenyl-2-carboxylic acid] | 3120 nM |  | 3590 nM
4 | COCCN(CCOC)c1ccc(-c2ccccc2-c2nnn[nH]2)cc1NC(=O)Nc1ccc(C)cc1 [Example 57, 1-(4-(bis(2-methoxyethyl)amino)-2′-(1H-tetrazol-5-yl)biphenyl-3-yl)-3-p-tolylurea] | 220 nM |  | 270 nM
5 | CCCN(CC1CC1)c1ccc(-c2ccccc2C(=O)O)cc1NC(=O)Nc1ccc(C)cc1 [Example 58, 4′-((cyclopropylmethyl) (propyl)amino)-3′-(3-p-tolylureido) biphenyl-2-carboxylic acid] | 60 nM |  | 100 nM
6 | CCCN(CC1CC1)c1ccc(-c2ccccc2-c2nnn[nH]2)cc1NC(=O)Nc1ccc(C)cc1 [Example 59, 1-(4-((cyclopropylmethyl) (propyl)amino)-2′-(1H-tetrazol-5-yl)biphenyl-3-yl)-3-p-tolylurea] | 10 nM |  | 20 nM
7 | Cc1ccc(NC(=O)Nc2cc(-c3ccccc3-c3nnn[nH]3)ccc2N(CC(F)F)CC2CC2)cc1 [Example 60, 1-(4-((cyclopropylmethyl) (2,2-difluoroethyl)amino)-2′-(1H-tetrazol-5-yl)biphenyl-3-yl)-3-p-tolylurea] | 140 nM |  | 140 nM
8 | Cc1ccc(NC(=O)Nc2cc(-c3ccccc3C(=O)O)ccc2N(CC(F)F)CC2CC2)cc1 [Example 61] | 700 nM |  | 510 nM
9 | COc1ccc(-c2ccc(N(CC(F)F)CC3CC3)c(NC(=O)Nc3ccc(C)cc3)c2)cc1C(=O)O [Example 62, 4′-((cyclopropylmethyl) (2,2-difluoroethyl)amino)-4-methoxy-3′-(3-p-tolylureido)biphenyl-3-carboxylic acid] | 2280 nM |  | 4120 nM
10 | Cc1cccc(NC(=O)Nc2cc(-c3ccccc3-c3nnn[nH]3)ccc2N(C)C2CCCCC2)c1 [Example 211, 1-(4-(cyclohexyl(methyl)amino)-2′-(1H-tetrazol-5-yl)biphenyl-3-yl)-3-m-tolylurea] | 110 nM |  | 490 nM
11 | CN(c1ccc(-c2ccccc2-c2nnn[nH]2)cc1NC(=O)Nc1ccccc1C(F)(F)F)C1CCCCC1 [Example 212, 1-(4-(cyclohexyl(methyl)amino)-2′-(1H-tetrazol-5-yl)biphenyl-3-yl)-3-(2-(trifluoromethyl)phenyl)urea] | 200 nM |  | 1270 nM
12 | Cc1ccc(NC(=O)Nc2cc(-c3ccccc3C(=O)O)ccc2N(C)C2CCCCC2)cc1 [Example 213, 4′-(cyclohexyl(methyl)amino)-3′-(3-p-tolylureido)biphenyl-2-carboxylic acid] | 6.56 nM |  | 10 nM
13 | CN(c1ccc(-c2ccccc2-c2nnn[nH]2)cc1NC(=O)Nc1ccccc1F)C1CCCCC1 [Example 214, 1-(4-(cyclohexyl(methyl)amino)-2′-(1H-tetrazol-5-yl)biphenyl-3-yl)-3-(2-fluorophenyl)urea] | 1.07 nM |  | 2.36 nM
14 | CN(c1ccc(-c2ccccc2C(=O)O)cc1NC(=O)Nc1ccccc1Cl)C1CCCCC1 [Example 215, 3′-(3-(2-chlorophenyl)ureido)-4′-(cyclohexyl(methyl)amino) biphenyl-2-carboxylic acid] | 120 nM |  | 1280 nM
15 | CCN(c1ccc(-c2ccccc2-c2nnn[nH]2)cc1NC(=O)Nc1ccc(C)cc1)C1CCCCC1 [Example 216, 1-(4-(cyclohexyl(ethyl)amino)-2′-(1H-tetrazol-5-yl)biphenyl-3-yl)-3-p-tolylurea] | 0.831 nM |  | 0.835 nM
16 | CN(c1ccc(-c2ccccc2C(=O)O)cc1NC(=O)Nc1ccccc1)C1CCCCC1 [Example 218, 4′-(cyclohexyl(methyl)amino)-3′-(3-phenylureido)biphenyl-2-carboxylic acid] | 90 nM |  | 490 nM
17 | CN(c1ccc(-c2ccccc2C(=O)O)cc1NC(=O)Nc1ccccc1F)C1CCCCC1 [Example 219, 4′-(cyclohexyl(methyl)amino)-3′-(3-(2-fluorophenyl)ureido) biphenyl-2-carboxylic acid] | 10 nM |  | 80 nM
18 | COc1ccc(-c2cc(NC(=O)Nc3ccc(C)cc3)c(N(C)C3CCCCC3)cc2F)cc1C(=O)O [Example 220, 4′-(cyclohexyl(methyl)ami-no)-2′-fluoro-4-methoxy-5′-(3-p-tolylureido)biphenyl-3-carboxylic acid] | 440 nM |  | 1470 nM
19 | Cc1ccc(NC(=O)Nc2cc(-c3ccccc3C(=O)O)c(F)cc2N(C)C2CCCCC2)cc1 [Example 221, 4′-(cyclohexyl(methyl)ami-no)-2′-fluoro-5′-(3-p-tolylureido)biphenyl-2-carboxylic acid] | 6.56 nM |  | 9.05 nM
20 | Cc1ccc(NC(=O)Nc2cc(-c3ccccc3-c3nnn[nH]3)c(F)cc2N(C)C2CCCCC2)cc1 [Example 222, 1-(4-(cyclohexyl(methyl)ami-no)-6-fluoro-2′-(1H-tetrazol-5-yl)biphenyl-3-yl)-3-p-tolylurea] | 2.63 nM |  | 10 nM
21 | Cc1ccc(NC(=O)Nc2cc(-c3ccccc3-c3nnn[nH]3)c(F)cc2N(CC(F)F)CC2CC2)cc1 [Example 223, 1-(4-((cyclopropylmethyl)(2,2-difluoroethyl)amino)-6-fluoro-2′-(1H-tetrazol-5-yl)biphenyl-3-yl)-3-p-tolylurea] | 160 nM |  | 420 nM
22 | Cc1ccc(NC(=O)Nc2cc(-c3ccccc3C(=O)O)c(F)cc2N(CC(F)F)CC2CC2)cc1 [Example 224, 4′-((cyclopropylmethyl)(2,2-difluoroethyl)amino)-2′-fluoro-5′-(3-p-tolylureido)biphenyl-2-carboxylic acid] | 440 nM |  | 640 nM
